Columns and labels:
[1] = test system: Mycobacterium tuberculosis Erdman (autoluminescent); assay: FIC90 (Loewe) at 90% inhibition (log2); higher = more antagonistic
Procedure: (§1)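 DiaMOND equipotent two-drug combination dose responses against autoluminescent M. tuberculosis Erdman in 8 in vitro models. Read-out is OD600, or luminescence for the intracellular and dormancy models, normalised to untreated wells. Hill-fit Einf, AUC25 and GRinf are potency metrics; FIC50 and FIC90 are Loewe-additivity fractional inhibitory concentrations, given as log2 (negative = synergy). Replicates are averaged.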

[2] = test system: Mycobacterium tuberculosis Erdman (autoluminescent); assay: FIC50 (Loewe) at 50% inhibition (log2); higher = more antagonistic
Procedure: as §1

[3] = test system: Mycobacterium tuberculosis Erdman (autoluminescent); assay: Einf, fitted maximum growth inhibition of combination (fraction); higher = stronger maximal inhibition
Procedure: as §1

[4] = test system: Mycobacterium tuberculosis Erdman (autoluminescent); assay: AUC25, normalised area under dose response up to IC25 (fraction (0-1)); higher = more potent at low dose
Procedure: as §1

[5] = test system: Mycobacterium tuberculosis Erdman (autoluminescent); assay: GRinf, maximum normalised growth rate inhibition (unitless (-1 to 1)); higher = less effect (negative = killing)
Procedure: as §1

[6] = test system: Mycobacterium tuberculosis Erdman (autoluminescent); assay: total FIC50 (Loewe) at 50% inhibition, three-drug combination (log2); higher = more antagonistic
Procedure: (§2)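 DiaMOND equipotent three-drug combination dose responses (10 doses, 1.5- or 2-fold spacing, centred on IC90) against autoluminescent M. tuberculosis Erdman in 8 in vitro models. Read-out is OD600, or luminescence for the intracellular and dormancy models, normalised to untreated wells. Hill-fit Einf, AUC25 and GRinf are potency metrics; FIC50 and FIC90 are total Loewe fractional inhibitory concentrations as log2 (negative = synergy).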

[7] = test system: Mycobacterium tuberculosis Erdman (autoluminescent); assay: total FIC90 (Loewe) at 90% inhibition, three-drug combination (log2); higher = more antagonistic
Procedure: as §2

[8] = test system: Mycobacterium tuberculosis Erdman (autoluminescent); assay: Einf, fitted maximum growth inhibition of three-drug combination (fraction); higher = stronger maximal inhibition
Procedure: as §2

[9] = test system: Mycobacterium tuberculosis Erdman (autoluminescent); assay: AUC25, normalised area under dose response up to IC25 (three-drug combination) (fraction (0-1)); higher = more potent at low dose
Procedure: as §2

[10] = test system: Mycobacterium tuberculosis Erdman (autoluminescent); assay: GRinf, maximum normalised growth rate inhibition (three-drug combination) (unitless (-1 to 1)); higher = less effect (negative = killing)
Procedure: as §2

CC(C)/N=c1\cc2n(-c3ccc(Cl)cc3)c3ccccc3nc-2cc1Nc1ccc(Cl)cc1 [clofazimine] + CC(=O)NC[C@H]1CN(c2ccc(N3CCOCC3)c(F)c2)C(=O)O1 [linezolid]
Settings	AUC25, [4]	Einf, [3]	FIC50, [2]	FIC90, [1]	GRinf, [5]
in vitro model: acidic pH 5.7, time point: constant (~7 days, model-specific)	0.0778	0.864	0.346	–	-0.00597
in vitro model: acidic pH 5.7, time point: terminal (~4-5 doublings, model-specific)	0.111	0.973	0.329	0.0194	-0.305
in vitro model: intracellular J774, time point: constant = terminal	–	0.855	–	0.457	-0.0533

Settings	AUC25, [4]	Einf, [3]	FIC50, [2]	FIC90, [1]	GRinf, [5]
in vitro model: butyrate, time point: constant (~7 days, model-specific)	0.113	0.957	0.573	0.875	-0.158
in vitro model: butyrate, time point: terminal (~4-5 doublings, model-specific)	0.0908	0.98	0.626	0.85	-0.142
in vitro model: cholesterol 0.05 mM, time point: constant (~7 days, model-specific)	0.152	0.747	-0.262	–	-0.0419
in vitro model: cholesterol 0.05 mM, time point: terminal (~4-5 doublings, model-specific)	0.164	0.951	-0.033	1.4	-0.35
in vitro model: cholesterol-high 0.2 mM, time point: constant (~7 days, model-specific)	0.131	0.917	0.143	1.38	-0.536
in vitro model: cholesterol-high 0.2 mM, time point: terminal (~4-5 doublings, model-specific)	0.133	0.994	-0.317	0.449	-0.854
in vitro model: dormancy (butyrate + nitrate, low O2), time point: constant (~7 days, model-specific)	0.0454	0.901	1.67	0.93	0.239
in vitro model: dormancy (butyrate + nitrate, low O2), time point: terminal (~4-5 doublings, model-specific)	0.0463	0.981	1.05	0.839	-0.123
in vitro model: standard 7H9 glycerol, time point: constant = terminal	0.117	0.979	0.286	0.696	-0.276
in vitro model: valerate, time point: constant (~7 days, model-specific)	0.148	0.925	-0.104	0.827	-0.186
in vitro model: valerate, time point: terminal (~4-5 doublings, model-specific)	0.0982	0.944	0.165	0.597	-0.107

CC(C)/N=c1\cc2n(-c3ccc(Cl)cc3)c3ccccc3nc-2cc1Nc1ccc(Cl)cc1 [clofazimine] + CC[C@@H](CO)NCCN[C@@H](CC)CO [ethambutol]
Settings	AUC25, [4]	Einf, [3]	FIC50, [2]	FIC90, [1]	GRinf, [5]
in vitro model: acidic pH 5.7, time point: constant (~7 days, model-specific)	0.101	0.702	0.298	–	0.0851
in vitro model: acidic pH 5.7, time point: terminal (~4-5 doublings, model-specific)	0.0812	0.937	0.474	0.294	-0.228
in vitro model: intracellular J774, time point: constant = terminal	–	1	–	-0.448	-0.789

Settings	AUC25, [4]	Einf, [3]	FIC50, [2]	FIC90, [1]	GRinf, [5]
in vitro model: butyrate, time point: constant (~7 days, model-specific)	0.0939	0.947	0.311	–	-0.0791
in vitro model: butyrate, time point: terminal (~4-5 doublings, model-specific)	0.0809	0.975	0.299	0.104	-0.0975
in vitro model: cholesterol 0.05 mM, time point: constant (~7 days, model-specific)	0.13	0.635	0.526	–	-0.0623
in vitro model: cholesterol 0.05 mM, time point: terminal (~4-5 doublings, model-specific)	0.137	0.854	0.199	–	-0.424
in vitro model: cholesterol-high 0.2 mM, time point: constant (~7 days, model-specific)	0.089	0.983	0.491	–	-0.666
in vitro model: cholesterol-high 0.2 mM, time point: terminal (~4-5 doublings, model-specific)	0.0861	0.999	0.255	0.466	-0.935
in vitro model: dormancy (butyrate + nitrate, low O2), time point: constant (~7 days, model-specific)	0.0731	0.788	-0.136	–	0.516
in vitro model: dormancy (butyrate + nitrate, low O2), time point: terminal (~4-5 doublings, model-specific)	0.114	0.967	0.277	0.818	-0.0829
in vitro model: standard 7H9 glycerol, time point: constant = terminal	0.111	0.963	-0.113	0.12	-0.234
in vitro model: valerate, time point: constant (~7 days, model-specific)	0.144	0.899	0.000309	–	-0.321
in vitro model: valerate, time point: terminal (~4-5 doublings, model-specific)	0.0819	0.913	0.0811	-0.728	-2.83e-05

NC(=O)c1cnccn1 [pyrazinamide] + CO[C@H]1/C=C/O[C@@]2(C)Oc3c(C)c(O)c4c(O)c(c(/C=N/N5CCN(C6CCCC6)CC5)c(O)c4c3C2=O)NC(=O)/C(C)=C\C=C\[C@H](C)[C@H](O)[C@@H](C)[C@@H](O)[C@@H](C)[C@H](OC(C)=O)[C@@H]1C [rifapentine] + CO[C@H]1/C=C/O[C@@]2(C)Oc3c(C)c(O)c4c(O)c(c(/C=N/N5CCN(C)CC5)c(O)c4c3C2=O)NC(=O)/C(C)=C\C=C\[C@H](C)[C@H](O)[C@@H](C)[C@@H](O)[C@@H](C)[C@H](OC(C)=O)[C@@H]1C [rifampicin]
Settings	AUC25, [9]	Einf, [8]	GRinf, [10]	total FIC50, [6]	total FIC90, [7]
in vitro model: acidic pH 5.7, time point: constant (~7 days, model-specific)	0.0803	0.896	-0.145	-0.178	–
in vitro model: acidic pH 5.7, time point: terminal (~4-5 doublings, model-specific)	0.0647	0.979	-0.174	-0.202	-1.03
in vitro model: intracellular J774, time point: constant = terminal	–	0.97	-0.213	–	-0.0544

Settings	AUC25, [9]	Einf, [8]	GRinf, [10]	total FIC50, [6]	total FIC90, [7]
in vitro model: butyrate, time point: constant (~7 days, model-specific)	0.117	0.881	0.12	0.0365	1.12
in vitro model: butyrate, time point: terminal (~4-5 doublings, model-specific)	0.103	0.952	0.104	0.198	0.732
in vitro model: cholesterol 0.05 mM, time point: constant (~7 days, model-specific)	0.115	0.629	0.0861	–	–
in vitro model: cholesterol 0.05 mM, time point: terminal (~4-5 doublings, model-specific)	0.0851	0.89	-0.108	0.707	–
in vitro model: cholesterol-high 0.2 mM, time point: constant (~7 days, model-specific)	0.0773	0.925	-0.227	0.97	–
in vitro model: cholesterol-high 0.2 mM, time point: terminal (~4-5 doublings, model-specific)	0.0817	1	-0.793	1.26	1.04
in vitro model: dormancy (butyrate + nitrate, low O2), time point: constant (~7 days, model-specific)	0.083	0.871	0.235	-0.0928	-0.329
in vitro model: dormancy (butyrate + nitrate, low O2), time point: terminal (~4-5 doublings, model-specific)	0.0472	0.977	-0.125	-0.147	-0.16
in vitro model: standard 7H9 glycerol, time point: constant = terminal	0.0549	0.884	0.17	-0.259	–
in vitro model: valerate, time point: constant (~7 days, model-specific)	0.0552	0.833	0.0781	0.198	–
in vitro model: valerate, time point: terminal (~4-5 doublings, model-specific)	0.0295	0.925	0.0607	0.142	-0.0108
